pIC50: −log10 of the molar value.
Target: T1, RNR (RNR1:RNR2 1:1) (Homo sapiens, UniProt P23921)
T1 sequence (P23921 1-792): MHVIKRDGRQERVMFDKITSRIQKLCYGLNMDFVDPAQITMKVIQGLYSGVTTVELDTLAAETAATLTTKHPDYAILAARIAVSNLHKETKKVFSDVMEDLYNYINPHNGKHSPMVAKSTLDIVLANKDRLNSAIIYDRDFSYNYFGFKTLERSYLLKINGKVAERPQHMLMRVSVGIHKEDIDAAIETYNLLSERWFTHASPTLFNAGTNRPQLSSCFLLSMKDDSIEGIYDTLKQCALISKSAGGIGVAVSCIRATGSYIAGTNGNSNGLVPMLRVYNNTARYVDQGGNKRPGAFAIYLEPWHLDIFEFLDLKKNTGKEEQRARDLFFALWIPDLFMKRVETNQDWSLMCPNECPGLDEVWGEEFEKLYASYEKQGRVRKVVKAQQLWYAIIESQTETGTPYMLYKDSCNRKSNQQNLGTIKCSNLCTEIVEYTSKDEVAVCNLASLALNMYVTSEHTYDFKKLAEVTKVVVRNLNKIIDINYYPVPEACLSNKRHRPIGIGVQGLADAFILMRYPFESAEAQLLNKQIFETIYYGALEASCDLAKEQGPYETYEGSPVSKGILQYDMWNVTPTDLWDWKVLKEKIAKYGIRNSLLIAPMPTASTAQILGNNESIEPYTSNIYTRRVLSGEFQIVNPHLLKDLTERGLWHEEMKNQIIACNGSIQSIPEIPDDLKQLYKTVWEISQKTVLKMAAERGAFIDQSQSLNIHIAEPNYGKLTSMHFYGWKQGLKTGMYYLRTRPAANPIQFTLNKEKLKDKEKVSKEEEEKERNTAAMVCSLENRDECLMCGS
Test: RNR enzyme activity, rapid-fire mass spectrometry (RFMS) assay
Assay type: biochemical
Conditions: RNR 50 nM, CDP 5 μM, ATP 1 mM, 37° C., 45 min, compounds screened up to 50 μM, read-out: RF/MS IC50
Protocol: A rapid-fire mass spectrometry (RFMS) assay was used to assess RNR enzyme activity using a 384 well plate and a robotic platform.
The plate layout included two validated reference compounds (Triapine (3-AP) and Hydroxyurea (HU)): • A dose response in duplicate; top concentration: 5 μM (3-AP) and 250 μM (HU), semi-log dilutions. • Spike wells in triplicate randomly spotted at four concentrations: • 250 μM, 100 μM, 30 μM and 2 μM for HU • 5 μM, 2 μM, 0.6 μM and 0.04 μM for 3-AP
First, the multidrop pipes were saturated for 30 minutes with enzymatic solution. Then 30 μL of Stop solution was distributed in column 24. Next, 15 μL of enzyme was distributed in column 1 to 24. Next, a pre-incubation step of 15 minutes at room temperature occurred, followed by distribution of 15 μL of substrate solution (column 1 to 24). Next, the plate was incubated for 45 minutes at 37° C. 30 μL of Stop solution was distributed to columns 1 to 23.
The final parameters for the enzyme reactions were: • Incubation: 37° C., 45 min • [CDP]: 5 μM; [ATP]: 1 mM; [NADPH]: No • [RNR] final: 50 nM with 1:1 (RNR1:RNR2) ratio • Final volume: 30 μL • Stop solution: 6% HCOOH containing 2 μM of 15

| SMILES | pIC50 |
| --- | --- |
| Cc1ccc(F)c(C(C)[C@H](NS(=O)(=O)N2CCCC(N(C)C)C2)c2n[nH]c(=O)o2)c1C (stereo partly drawn) [Example 25, 3-(dimethylamino)-N-((1S)-2-(6-fluoro-2,3-dimethylphenyl)-1-(5-oxo-4,5-dihydro-1,3,4-oxadiazol-2-yl)propyl)piperidine-1-sulfonamide] | 4.00 to 5.00 |
| CCCCC1CCN(S(=O)(=O)N[C@H](c2n[nH]c(=O)o2)[C@H](C)c2c(F)ccc(C)c2C)CC1 [Example 79, 4-butyl-N-((1S,2R)-2-(6-fluoro-2,3-dimethylphenyl)-1-(5-oxo-4,5-dihydro-1,3,4-oxadiazol-2-yl)propyl)piperidine-1-sulfonamide] | 5.00 to 6.00 |
| COC1CCN(S(=O)(=O)N[C@H](c2n[nH]c(=O)o2)[C@@H](C)c2c(F)ccc(C)c2C)CC1 [Example 126, N-((1S,2S)-2-(6-fluoro-2,3-dimethylphenyl)-1-(5-oxo-4,5-dihydro-1,3,4-oxadiazol-2-yl)propyl)-4-methoxypiperidine-1-sulfonamide] | 5.00 to 6.00 |
| Cc1ccc(F)c([C@@H](C)[C@H](NS(=O)(=O)N2CCC(N3CCCC3)CC2)c2n[nH]c(=O)o2)c1C [Example 50, N-((1S,2R)-2-(6-fluoro-2,3-dimethylphenyl)-1-(5-oxo-4,5-dihydro-1,3,4-oxadiazol-2-yl)propyl)-4-(pyrrolidin-1-yl)piperidine-1-sulfonamide] | 4.00 to 5.00 |
| Cc1ccc(F)c(C(C)[C@H](NS(=O)(=O)N2CCCC2)c2n[nH]c(=O)o2)c1C (stereo partly drawn) [Example 112, N-((1S)-2-(6-fluoro-2,3-dimethylphenyl)-1-(5-oxo-4,5-dihydro-1,3,4-oxadiazol-2-yl)propyl)pyrrolidine-1-sulfonamide] | 5.00 to 6.00 |
| COCC1CCN(S(=O)(=O)N[C@H](c2n[nH]c(=O)o2)[C@@H](C)c2c(F)ccc(C)c2C)CC1 [Example 128, N-((1S,2S)-2-(6-fluoro-2,3-dimethylphenyl)-1-(5-oxo-4,5-dihydro-1,3,4-oxadiazol-2-yl)propyl)-4-(methoxymethyl)piperidine-1-sulfonamide] | 5.00 to 6.00 |
| Cc1ccc(F)c([C@H](C)[C@H](NS(=O)(=O)N2CC(C)CC(C)C2)c2n[nH]c(=O)o2)c1C (stereo partly drawn) [Example 122, N-((1S,2S)-2-(6-fluoro-2,3-dimethylphenyl)-1-(5-oxo-4,5-dihydro-1,3,4-oxadiazol-2-yl)propyl)-3,5-dimethylpiperidine-1-sulfonamide] | 5.00 to 6.00 |
| Cc1ccc(F)c(C(C)[C@H](NS(=O)(=O)N2CCC(C(F)(F)F)CC2)c2n[nH]c(=O)o2)c1C (stereo partly drawn) [Example 33, N-((1S)-2-(6-fluoro-2,3-dimethylphenyl)-1-(5-oxo-4,5-dihydro-1,3,4-oxadiazol-2-yl)propyl)-4-(trifluoromethyl)piperidine-1-sulfonamide] | 5.00 to 6.00 |
| COCC1CCCN(S(=O)(=O)N[C@H](c2n[nH]c(=O)o2)[C@H](C)c2c(F)ccc(C)c2C)C1 (stereo partly drawn) [Example 129, N-((1S,2R)-2-(6-fluoro-2,3-dimethylphenyl)-1-(5-oxo-4,5-dihydro-1,3,4-oxadiazol-2-yl)propyl)-3-(methoxymethyl)piperidine-1-sulfonamide] | 5.00 to 6.00 |
| Cc1ccc(F)c([C@H](C)[C@H](NS(=O)(=O)N2CCC[C@](C)(O)C2)c2n[nH]c(=O)o2)c1C [Example 21, (S)-N-((1S,2S)-2-(6-fluoro-2,3-dimethylphenyl)-1-(5-oxo-4,5-dihydro-1,3,4-oxadiazol-2-yl)propyl)-3-hydroxy-3-methylpiperidine-1-sulfonamide] | 5.00 to 6.00 |
| Cc1ccc(F)c(C(C)[C@H](NS(=O)(=O)N2CCCC3CN(C(=O)OC(C)(C)C)CC32)c2n[nH]c(=O)o2)c1C (stereo partly drawn) [Example 23, tert-butyl 1-(N-((1S)-2-(6-fluoro-2,3-dimethylphenyl)-1-(5-oxo-4,5-dihydro-1,3,4-oxadiazol-2-yl)propyl)sulfamoyl)-octahydro-6H-pyrrolo[3,4-b]pyridine-6-carboxylate] | 5.00 to 6.00 |
| CC(=O)[C@@H]1CCCCN1S(=O)(=O)N[C@H](c1n[nH]c(=O)o1)[C@@H](C)c1c(F)ccc(C)c1C [Example 18, (S)-2-acetyl-N-((1S,2S)-2-(6-fluoro-2,3-dimethylphenyl)-1-(5-oxo-4,5-dihydro-1,3,4-oxadiazol-2-yl)propyl)piperidine-1-sulfonamide] | 5.00 to 6.00 |

Continued, values first:

| pIC50 | SMILES |
| --- | --- |
| 5.00 to 6.00 | Cc1ccc(F)c([C@H](C)[C@H](NS(=O)(=O)N2CCC(Cl)(Cl)CC2)c2n[nH]c(=O)o2)c1C [Example 98, 4,4-dichloro-N-((1S,2S)-2-(6-fluoro-2,3-dimethylphenyl)-1-(5-oxo-4,5-dihydro-1,3,4-oxadiazol-2-yl)propyl)piperidine-1-sulfonamide] |
| 6.00 to 7.00 | Cc1ccc(F)c(C(C)[C@H](NS(=O)(=O)N2CCC(Cl)(C#N)CC2)c2n[nH]c(=O)o2)c1C (stereo partly drawn) [Example 101, 4-chloro-4-cyano-N-((1S)-2-(6-fluoro-2,3-dimethylphenyl)-1-(5-oxo-4,5-dihydro-1,3,4-oxadiazol-2-yl)propyl)piperidine-1-sulfonamide] |
| 5.00 to 6.00 | Cc1ccc(F)c(C(C)[C@H](NS(=O)(=O)N2CCC(C(=O)N(C)C)CC2)c2n[nH]c(=O)o2)c1C (stereo partly drawn) [Example 64, 1-(N-((1S)-2-(6-fluoro-2,3-dimethylphenyl)-1-(5-oxo-4,5-dihydro-1,3,4-oxadiazol-2-yl)propyl)sulfamoyl)-N,N-dimethylpiperidine-4-carboxamide] |
| 6.00 to 7.00 | Cc1ccc(F)c([C@@H](C)[C@H](NS(=O)(=O)N2CCC(Oc3ccccn3)CC2)c2n[nH]c(=O)o2)c1C [Example 70, N-((1S,2R)-2-(6-fluoro-2,3-dimethylphenyl)-1-(5-oxo-4,5-dihydro-1,3,4-oxadiazol-2-yl)propyl)-4-(pyridin-2-yloxy)piperidine-1-sulfonamide] |
| 5.00 to 6.00 | Cc1ccc(F)c(C(C)[C@H](NS(=O)(=O)N2CCC(N3CCCC3=O)CC2)c2n[nH]c(=O)o2)c1C (stereo partly drawn) [Example 80, N-((1S)-2-(6-fluoro-2,3-dimethylphenyl)-1-(5-oxo-4,5-dihydro-1,3,4-oxadiazol-2-yl)propyl)-4-(2-oxopyrrolidin-1-yl)piperidine-1-sulfonamide] |
| 6.00 to 7.00 | Cc1ccc(F)c(C(C)[C@H](NS(=O)(=O)N2CCC(F)(F)CC2C)c2n[nH]c(=O)o2)c1C (stereo partly drawn) [Example 111, 4,4-difluoro-N-((1S)-2-(6-fluoro-2,3-dimethylphenyl)-1-(5-oxo-4,5-dihydro-1,3,4-oxadiazol-2-yl)propyl)-2-methylpiperidine-1-sulfonamide] |
| 6.00 to 7.00 | Cc1ccc(F)c([C@@H](C)[C@H](NS(=O)(=O)N2CCCCC2CC(N)=O)c2n[nH]c(=O)o2)c1C (stereo partly drawn) [Example 15, 2-(1-(N-((1S,2R)-2-(6-fluoro-2,3-dimethylphenyl)-1-(5-oxo-4,5-dihydro-1,3,4-oxadiazol-2-yl)propyl)sulfamoyl)piperidin-2-yl)acetamide] |
| 6.00 to 7.00 | Cc1ccc(F)c([C@@H](C)[C@H](NS(=O)(=O)N2CCC(C)CC2)c2n[nH]c(=O)o2)c1C [Example 115, N-((1S,2R)-2-(6-fluoro-2,3-dimethylphenyl)-1-(5-oxo-4,5-dihydro-1,3,4-oxadiazol-2-yl)propyl)-4-methylpiperidine-1-sulfonamide] |
| 6.00 to 7.00 | Cc1ccc(F)c([C@@H](C)[C@H](NS(=O)(=O)N2CCC3(CCCCC3)CC2)c2n[nH]c(=O)o2)c1C [Example 87, N-((1S,2R)-2-(6-fluoro-2,3-dimethylphenyl)-1-(5-oxo-4,5-dihydro-1,3,4-oxadiazol-2-yl)propyl)-3-azaspiro[5.5]undecane-3-sulfonamide] |

Source: patent publication US20240425490A1, “SULFAMIDE RIBONUCLEOTIDE REDUCTASE (RNR) INHIBITORS AND USES THEREOF” (Boundless Bio, Inc., priority 2021, published 2024)
